What follows are molecules tested against IDO1 (Homo sapiens, UniProt P14902) (assay: IDO1 cellular assay in HeLa cells stimulated with IFNγ). Conditions: IFNγ 100 ng/mL, 300 uM L-tryptophan, about 48 hours, fluorescence readout, read-out: HeLa Cell Potency, IC50.
IDO1, sequence (P14902 whole entry): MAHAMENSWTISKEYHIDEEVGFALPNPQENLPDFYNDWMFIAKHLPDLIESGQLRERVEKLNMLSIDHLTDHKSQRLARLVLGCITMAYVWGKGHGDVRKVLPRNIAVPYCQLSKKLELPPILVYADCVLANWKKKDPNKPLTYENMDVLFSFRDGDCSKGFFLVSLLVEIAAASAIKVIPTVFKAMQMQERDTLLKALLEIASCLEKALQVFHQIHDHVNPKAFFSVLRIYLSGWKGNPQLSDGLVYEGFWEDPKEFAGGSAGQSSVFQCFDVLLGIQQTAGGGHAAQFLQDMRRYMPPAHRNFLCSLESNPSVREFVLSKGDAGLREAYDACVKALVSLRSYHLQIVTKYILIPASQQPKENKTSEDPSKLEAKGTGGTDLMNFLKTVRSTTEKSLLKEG
Format: cell-based
Experimental: Biological Assays IDO1 Cellular Assay in HeLa Cells Stimulated with IFNγ
HeLa cells were cultured in complete HeLa culture medium (90% EMEM, 10% heat-inactivated fetal bovine serum) and expanded to about 1×10^9 cells. The cells were then collected and frozen down at 1×10^7 cells/vial in 1 mL frozen medium (90% complete HeLa culture medium, 10% DMSO).
Compounds to be tested were serially diluted in ten 3-fold steps in DMSO starting from 10 mM DMSO stocks in Echo low volume plate(s). Compound dilutions or DMSO alone were then dispensed from the dilution plate(s) into Greiner black 384-well assay plate(s) (catalog #781086, 50 nL/well) using an Echo 550 acoustic liquid handler (Labcyte).
Frozen HeLa cells were thawed and transferred into HeLa assay medium (99% complete HeLa culture medium, 1% Pen/Strep) with 20 mL medium/vial of cells. The cells were spun down at 250 g in a table top centrifuge for 5 min and suspended in same volume of HeLa assay medium. The cells were then counted and adjusted to a density of 2×10^5 cells/mL in HeLa assay medium. Sterile L-tryptophan were added to the cells with final concentration of 300 uM L-tryptophan. A small aliquot (2 mL/plate) of HeLa cells were set aside and were not treated with IFNγ, to serve as the Max-E control.
HeLa cells with and without IFNγ were dispensed to the respective wells of 384-well assay plates containing the compounds. The plates were incubated for about 48 hours at a 37° C., 5% CO2 incubator. Afterwards, 12 μL of 0.5 M methyl isonipecotate in dimethyl sulfoxide were added into each well and the plates were sealed and incubated at 37° C. without CO2 overnight. The plates were centrifuged for 1 min at 200×g. The resulting fluorescence was measured in a Spectramax plate reader (Molecular Devices) with a 400 nm excitation filter and a 510 nm emission filter.
The fluorescence intensity of each well was corrected for the background observed in wells with non-IFNγ-treated cells and was expressed as a fraction of the intensity observed in wells of IFNγ-treated cells and DMSO only. Potencies were calculated by linear least squares fit to the four parameter logistic IC50 equation.
Molecule `Cc1ccncc1OC1CCCc2nc(C3(NC(=O)c4ccc(F)cc4)CC3)ccc21` (stereo not drawn) [Example 6, 4-fluoro-N-(1-(5((4-methylpyridin-3-yl)oxy)-5,6,7,8-tetrahydroquinolin-2-yl)cyclopropyl)benzamide] has an IC50 of 9.96 nM.
`O=C(NC1(c2ccc3c(n2)CCCC3Nc2cccc(Cl)c2)CC1)c1ccc(F)cc1` (stereo not drawn) [Example 17, N-(1-(5-((3-chlorophenyl)amino)-5,6,7,8-tetrahydroquinolin-2-yl)cyclopropyl)-4-fluorobenzamide] gave an IC50 of 38.2 nM.
Work on `Cc1nccc([C@H]2CCCc3nc(C4(NC(=O)c5ccc(F)cc5)CC4)ccc32)n1` (single isomer, unassigned) [Example 23] yielded an IC50 of 42.3 nM.
In the case of `N#Cc1cccc(OC2CCCc3nc(C4(NC(=O)c5ccc(F)cc5)CC4)ccc32)c1` (stereo not drawn) [Example 12, N-(1-(5-(3-cyanophenoxy)-5,6,7,8-tetrahydroquinolin-2-yl)cyclopropyl)-4-fluorobenzamide], the IC50 is reported as 5.69 nM.
`O=C(NC1(c2ccc3c(n2)CCCC3Oc2ccc(F)nc2)CC1)c1ccc(F)cc1` (stereo not drawn) [Example 9, 4-fluoro-N-(1-(5((6-fluoropyridin-3-yl)oxy)-5,6,7,8-tetrahydroquinolin-2-yl)cyclopropyL)benzamide] gave an IC50 of 24.4 nM.
`Cc1ncc(OC2CCCc3nc(C4(NC(=O)c5ccc(F)cc5)CC4)ccc32)cn1` (stereo not drawn) [Example 15, 4-fluoro-N-(1-(5-((2-methylpyrimidin-5-yl)oxy)-5,6,7,8-tetrahydroquinolin-2-yl)cyclopropyl)benzamide] showed an IC50 of 130 nM.
`O=C(NC1(c2ccc3c(n2)CCCC3c2cncc(C(F)(F)F)c2)CC1)c1ccc(F)cc1` (stereo not drawn) [Example 28, 4-fluoro-N-(1-(5-(5-(trifluoromethyl)pyridin-3-yl)-5,6,7,8-tetrahydroquinolin-2-yl)cyclopropyl)benzamide] was tested, and the IC50 was 212 nM.
`N#Cc1cccc(OC2CCCc3nc(C4(NC(=O)c5ccc(F)cc5)CC4)ccc32)c1` (stereo not drawn) [Example 8, N-(1-(5-(3-cyanophenoxy)-5,6,7,8-tetrahydroquinolin-2-yl)cyclopropyl)-4-fluorobenzamide] gave an IC50 of 2.16 nM.
`Cc1ccncc1OC1CCCc2nc(C3(NC(=O)c4ccc(F)cc4)CC3)ccc21` (stereo not drawn) [Example 10, 4-fluoro-N-(1-(5-((4-methylpyridin-3-yl)oxy)-5,6,7,8-tetrahydroquinolin-2-yl)cyclopropyl)benzamide] was tested, and the IC50 was 108 nM.
For `O=C(NC1(c2ccc3c(n2)CCCC3OCC2CC2)CC1)c1ccc(F)cc1` (single isomer, unassigned) [Example 20, N-(1-(5-(cyclopropylmethoxy)-5,6,7,8-tetrahydroquinolin-2-yl)cyclopropyl)-4-fluorobenzamide], the IC50 was 95.4 nM.
For `O=C(NC1(c2ccc3c(n2)CCCC3Oc2cncc(Cl)c2)CC1)c1ccc(F)cc1` (stereo not drawn) [Example 11, N-(1-(5-((5-chloropyridin-3-yl)oxy)-5,6,7,8-tetrahydroquinolin-2-yl)cyclopropyl)-4-fluorobenzamide], the IC50 was 3.96 nM.
In the case of `Cc1nccc(C2CCCc3nc(C4(NC(=O)c5ccc(F)cc5)CC4)ccc32)n1` (stereo not drawn) [Example 21, 4-Fluoro-N-(1-(5-(2-methylpyrimidin-4-yl)-5,6,7,8-tetrahydroquinolin-2-yl)cyclopropyl)benzamide], the IC50 is reported as 25 nM.
Molecule `O=C(NC1(c2ccc3c(n2)CCCC3Oc2cncc(Cl)c2)CC1)c1ccc(F)cc1` (stereo not drawn) [Example 7, N-(1-(5-((5-chloropyridin-3-yl)oxy)-5,6,7,8-tetrahydroquinolin-2-yl)cyclopropyl)-4-fluorobenzamide] has an IC50 of 5.32 nM.
In the case of `Cc1ncc(OC2CCCc3nc(C4(NC(=O)c5ccc(F)cc5)CC4)ccc32)cn1` (stereo not drawn) [Example 13, 4-fluoro-N-(1-(5-((2-methylpyrimidin-5-yl)oxy)-5,6,7,8-tetrahydroquinolin-2-yl)cyclopropyl)benzamide], the IC50 is reported as 44.5 nM.
Molecule `Cc1ncc(C2CCCc3nc(C4(NC(=O)c5ccc(F)cc5)CC4)ccc32)cn1` (stereo not drawn) [Example 30, 4-fluoro-N-(1-(5-(2-methylpyrimidin-5-yl)-5,6,7,8-tetrahydroquinolin-2-yl)cyclopropyl)benzamide] has an IC50 of 1420 nM.
In the case of `CCC(NC(=O)c1ccc(F)cc1)c1ccc2c(n1)CCCC2c1cncc(F)c1` (stereo not drawn) [Example 25, 4-fluoro-N-(1-(5-(5-fluoropyridin-3-yl)-5,6,7,8-tetrahydroquinolin-2-yl)propyl)benzamide], the IC50 is reported as 2190 nM.
In the case of `CN(C)c1ncc(OC2CCCc3nc(C4(NC(=O)c5ccc(F)cc5)CC4)ccc32)cn1` (single isomer, unassigned) [Example 4, N-(1-(5-((2-(dimethylamino)pyrimidin-5-yl)oxy)-5,6,7,8-tetrahydroquinolin-2-yl)cyclopropyl)-4-fluorobenzamide], the IC50 is reported as 9.34 nM.
Molecule `O=C(NC1(c2ccc3c(n2)CCCC3OCC2CC2)CC1)c1ccc(F)cc1` (stereo not drawn) [Example 18, N-(1-(5-(cyclopropylmethoxy)-5,6,7,8-tetrahydroquinolin-2-yl)cyclopropyl)-4-fluorobenzamide] has an IC50 of 58.6 nM.
Work on `CCC(NC(=O)c1ccc(F)cc1)c1ccc2c(n1)CCCC2c1cncc(C)c1` (stereo not drawn) [Example 27, 4-fluoro-N-(1-(5-(5-methylpyridin-3-yl)-5,6,7,8-tetrahydroquinolin-2-yl)propyl)benzamide] yielded an IC50 of 643 nM.
Work on `Cc1nccc([C@@H]2CCCc3nc(C4(NC(=O)c5ccc(F)cc5)CC4)ccc32)n1` (single isomer, unassigned) [Example 22] yielded an IC50 of 41.3 nM.
Work on `O=C(NC1(c2ccc3c(n2)CCCC3Nc2cccc(Cl)c2)CC1)c1ccc(F)cc1` (stereo not drawn) [Example 16, N-(1-(5-((3-chlorophenyl)amino)-5,6,7,8-tetrahydroquinolin-2-yl)cyclopropyl)-4-fluorobenzamide] yielded an IC50 of 13.9 nM.
`O=C(NC1(c2ccc3c(n2)CCCC3c2cncc(F)c2)CC1)c1ccc(F)cc1` (stereo not drawn) [Example 24, 4-Fluoro-N-(1-(5-(5-fluoropyridin-3-yl)-5,6,7,8-tetrahydroquinolin-2-yl)cyclopropyl)benzamide] showed an IC50 of 384 nM.
`O=C(NC1(c2ccc3c(n2)CCCC3OCC2CC2)CC1)c1ccc(F)cc1` (single isomer, unassigned) [Example 19, N-(1-(5-(cyclopropylmethoxy)-5,6,7,8-tetrahydroquinolin-2-yl)cyclopropyl)-4-fluorobenzamide] gave an IC50 of 65.9 nM.
Molecule `CN(C)c1ncc(OC2CCCc3nc(C4(NC(=O)c5ccc(F)cc5)CC4)ccc32)cn1` (stereo not drawn) [Example 14, N-(1-(5-((2-(dimethylamino)pyrimidin-5-yl)oxy)-5,6,7,8-tetrahydroquinolin-2-yl)cyclopropyl)-4-fluorobenzamide] has an IC50 of 81.4 nM.
With `Cc1cncc(C2CCCc3nc(C4(NC(=O)c5ccc(F)cc5)CC4)ccc32)c1` (stereo not drawn) [Example 26, 4-fluoro-N-(1-(5-(5-methylpyridin-3-yl)-5,6,7,8-tetrahydroquinolin-2-yl)cyclopropyl)benzamide] the IC50 was 183 nM.
Molecule `O=C(NC1(c2ccc3c(n2)CCCC3Oc2ccc(F)nc2)CC1)c1ccc(F)cc1` (stereo not drawn) [Example 5, 4-fluoro-N-(1-(5((6-fluoropyridin-3-yl)oxy)-5,6,7,8-tetrahydroquinolin-2-yl)cyclopropyl)benzamide] has an IC50 of 12.4 nM.
`CCC(NC(=O)c1ccc(F)cc1)c1ccc2c(n1)CCCC2c1cncc(C(F)(F)F)c1` (stereo not drawn) [Example 29, 4-fluoro-N-(1-(5-(5-(trifluoromethyl)pyridin-3-yl)-5,6,7,8-tetrahydroquinolin-2-yl)propyl)benzamide] showed an IC50 of 854 nM.
